Measured values as given in patent US20250374923A1 (priority 2022, published 2025).
“And” between values parts separate entries of the source, which are not always exact repeats. Equal values may be shown once. Where a name gives a salt, the structure may show the parent alone.

Columns and labels:
[1] = average of six replications; fruit collected December 7
Excerpt: (§1) Treatments included the application of oxytetracycline (OTC) using Invaio's proprietary injection system into the scion of each tree. The trial was designed as a randomized complete blocking which three treatments were applied to each of four trees within each of six replications at three different treatment dates. […] The OTC is a commercial oxytetracycline product. One injection of OTC was made in each tree for the first two injections timings and two OTC injections were made per tree at the third application timing.
Fruit was collected from trees of the OTC treatment by replication on December 7 and bulked according to treatment and replication to create individual fruit samples for OTC residue analysis. Similarly, fruit was collected from trees from two replications of nontreated treatments and bulked by replication to create individual fruit samples for OTC residue analysis.

[2] = test system: citrus greening; conditions: average across six replications; harvested December 21
Excerpt: as §1
Fruit yield. Fruit yield was determined for trees of each treatment as the total weight (lbs) of fruit picked (harvested) from each tree on December 21. Fruit yield was recorded as an average by replication and as an average across all six replications (Table 3).

[3] = test system: citrus greening; experiment: Example 1 field trial: fruit drop
Excerpt: (§2) Field trial design. […] Treatments included the application of oxytetracycline (OTC) using Invaio's proprietary injection system into the scion of each tree. The trial was designed as a randomized complete blocking which three treatments were applied to each of four trees within each of six replications at three different treatment dates. […] The OTC is a commercial oxytetracycline product. One injection of OTC was made in each tree for the first two injections timings and two OTC injections were made per tree at the third application timing.
Fruit drop. Fruit drop was determined for trees of each treatment as the number of fruit on the ground underneath each tree at each of six counting dates, approximately 2 weeks apart, beginning on October 13 and finishing prior to fruit harvest on December 21. Counted fruit were removed from the ground after each counting date. Fruit drop was recorded as an average by date and as an average across all six dates (Table 4).

[4] = test system: citrus greening; experiment: Example 1 field trial: BRIX analysis of fruit; conditions: fruit collected December 8
Excerpt: as §2
BRIX analysis. Fruit was collected from trees of each treatment by replication on December 8 and bulked according to treatment and replication to create individual fruit samples for BRIX analysis.

[5] = test system: citrus greening
Description: The treatment delivered 150 mg OTC-HCl per season.
The treatment delivered 600 mg OTC-HCl per season.

Row | SMILES | OTC residue in fruit, treatment average [1] | Fruit yield (lbs per tree), treatment average [2] | Fruit drop (number), treatment average ([3]; average across replications and dates) [number] | Fruit drop (number), rep average across dates ([3]; average of six counting dates, by replication) | Fruit drop (number) ([3]; counting date 8-Dec, by replication) | Fruit drop (number) ([3]; counting date 9-Nov, by replication) | Fruit drop (number) ([3]; counting date 13-Oct, by replication) | Fruit drop (number) ([3]; counting date 21-Dec, by replication) | Fruit drop (number) ([3]; counting date 24-Nov, by replication) | Fruit drop (number) ([3]; counting date 28-Oct, by replication) | Brix, treatment average ([4]; average of six replications) | Brix ([4]; by replication, OTC 1.58 mg/mL, 60 ml scion injections) | yield increase over water ([5]; 150 mg OTC-HCl per season (FIG. 30)) | yield increase over the nontreated controls ([5]; 600 mg OTC-HCl per season (FIG. 31)) [%]
1 | CN(C)[C@@H]1C(O)=C(C(N)=O)C(=O)[C@@]2(O)C(O)=C3C(=O)c4c(O)cccc4[C@@](C)(O)[C@H]3[C@H](O)[C@@H]12 [OTC, oxytetracycline] | 0.007 ppm and 0.006616 ppm | 48.7 lbs per tree and 50.4 lbs per tree | 17.8 | 20.9 number and 20.5 number and 16.0 number and 17.1 number and 14.5 number and 18.0 number | 19.0 number and 13.3 number and 14.0 number and 12.3 number and 15.0 number and 22.8 number | 31.5 number and 20.5 number and 23.8 number and 18.5 number and 22.0 number and 28.0 number | 11.5 number and 8.8 number and 9.0 number and 7.3 number and 14.5 number and 14.3 number | 17.5 number and 20.0 number and 16.5 number and 16.8 number and 12.0 number and 15.0 number | 26.8 number and 18.3 number and 20.8 number and 21.8 number and 28.0 number | 14.5 number and 18.8 number and 18.3 number and 16.3 number and 19.8 number and 15.0 number | 8.0 | 8.1 and 8.4 and 8 and 7.6 |  | 
2 | CN(C)[C@@H]1C(O)=C(C(N)=O)C(=O)[C@@]2(O)C(O)=C3C(=O)c4c(O)cccc4[C@@](C)(O)[C@H]3[C@H](O)[C@@H]12 [OTC-HCl, oxytetracycline hydrochloride] |  |  |  |  |  |  |  |  |  |  |  |  | about 74% | ~53
